Results taken from patent US12435087B2, “Modulators of DCN-1 and methods of use thereof” (Cellarity, Inc., priority 2023, dated 2025).
Where two headings read alike, the source gives them in different places.

Molecular target: DCN1 (DCUND1) protein PONY domain (Homo sapiens (Human), UniProt Q96GG9)
Assay: TR-FRET assay (binding to DCN-1, displacement of FAM-labeled probe)
Method in brief: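 Compounds read at 1, 5 and 24 h, 0.1% final DMSO, by TR-FRET between terbium-streptavidin on biotinylated DCN1 PONY domain (E. coli) and a FAM-tagged non-covalent inhibitor probe. Two setups used, 5 nM protein with 20 nM labelled probe, or 0.31 nM protein with 100 nM labelled plus 800 nM unlabelled probe; buffer had TritonX and 200 mM NaCl. % activity relative to high (with probe) and low (without probe) controls.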

[1] = 24 hr after treatment with compound, read-out: TR FRET IC50 24 hr
[2] = TR FRET IC50 1 hr (nM), 1 hr after treatment with compound
[3] = read-out: TR FRET IC50 1 hr, 1 hr after treatment with compound

Sequence of DCN1 (DCUND1) protein PONY domain (Q96GG9 60-248): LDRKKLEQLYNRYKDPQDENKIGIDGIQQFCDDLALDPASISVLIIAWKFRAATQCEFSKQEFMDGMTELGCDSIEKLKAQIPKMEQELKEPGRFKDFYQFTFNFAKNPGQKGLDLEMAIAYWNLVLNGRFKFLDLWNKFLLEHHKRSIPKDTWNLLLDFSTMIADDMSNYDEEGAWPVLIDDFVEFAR

Structure (SMILES)	IC50 [1] [nM]	IC50 [2] [nM]	IC50 [3] [nM]
CCN1C(=O)[C@@H](NC(=O)c2nccc(C(F)(F)F)n2)[C@H](c2cccc(C(=O)N3CCC[C@H]3C#N)c2)c2cnn(-c3ccccc3)c21 [Compound I-249]	1000 to 3000	1000 to 3000	
C=C(C(=O)NCc1cccc([C@@H]2c3cnn(-c4ccccc4)c3N(CC)C(=O)[C@H]2NC(=O)c2ccn(C(F)(F)F)n2)c1)C(C)N1CC2CC(C1)O2 (stereo partly drawn) [Compound I-287]	≤ 200		≤ 200
C=C(CN1CC2CC1C2)C(=O)NCc1cccc([C@@H]2c3cnn(-c4ccccc4)c3N(CC)C(=O)[C@H]2NC(=O)c2cccc(C(F)(F)F)c2)c1 [Compound I-13]	≤ 200		≤ 200
C=C(CN1CCN(C2COC2)CC1)C(=O)N[C@H](C)c1cccc([C@@H]2c3cnn(-c4ccccc4)c3N(CC)C(=O)[C@H]2NC(=O)c2nccc(C(F)(F)F)n2)c1 (mixture of isomers) [Compound I-366]	1000 to 3000	1000 to 3000	
CCN1C(=O)[C@H](NC(=O)c2cccc(C(F)(F)F)c2)[C@@H](c2cccc(CNC(=O)/C=C(\C)C(=O)OC)c2)c2cnn(-c3ccccc3)c21 [Compound I-116]	1000 to 3000	1000 to 3000	
C=C(CN1C2COCC1C2)C(=O)NCc1cccc([C@@H]2c3cnn(-c4ccccc4)c3N(CC)C(=O)[C@H]2NC(=O)c2cccc(C(F)(F)F)c2)c1 [Compound I-8]	≤ 200		≤ 200
C=C(CN1CC2CC(C1)O2)C(=O)NCc1cccc([C@@H]2c3cnn(-c4ccccc4)c3N(CC)C(=O)[C@H]2NC(=O)c2nccc(C(F)(F)F)n2)c1 [Compound I-346]	≤ 200		≤ 200
C=C(CN1CCOCC1)C(=O)NCc1cccc([C@H]2c3cnn(-c4ccccc4)c3N(CC)C(=O)[C@@H]2NC(=O)c2nccc(C(F)(F)F)n2)c1 [Compound I-43]	1000 to 3000	1000 to 3000	
C=C(C)S(=O)(=O)Nc1cccc([C@H]2c3c(C)nn(-c4ccccc4)c3N(CC)C(=O)[C@@H]2NC(=O)c2cccc(C(F)(F)F)c2)c1 (racemic) [Compound I-88]	1000 to 3000	1000 to 3000	
CCN1C(=O)[C@@H](NC(=O)c2cccc(C(F)(F)F)c2)[C@H](c2ccccc2CNC(=O)C(C)Cl)c2cnn(-c3ccccc3)c21 (mixture of isomers) [Compound I-114]	1000 to 3000	1000 to 3000	
C=C(C(=O)N(C)Cc1cccc([C@@H]2c3cnn(-c4ccccc4)c3N(CC)C(=O)[C@H]2NC(=O)c2ccn(C3CC3)n2)c1)C(C)N1CCC12COC2 (stereo partly drawn) [Compound I-343]	200 to 1000	1000 to 3000	
CCN1C(=O)[C@H](NC(=O)c2cccc(C(F)(F)F)c2)[C@@H](c2cccc(NC(=O)/C=C/CN(C)C)c2)c2c(CO)nn(-c3ccccc3)c21 (racemic) [Compound I-213, ˜{N}—[˜{rac}-(4˜{S},5˜{R})-7-ethyl-3-(hydroxymethyl)-6-oxo-1-phenyl-4-[3-[[˜{rac}-(˜{E})-4-(dimethylamino)but-2-enoyl]amino]phenyl]-4,5-dihydropyrazolo[3,4-b]pyridin-5-yl]-3-(trifluoromethyl)benzamide]	200 to 1000	1000 to 3000	
C/C=C(/CN1CCN(C2COC2)CC1)C(=O)NCc1cccc([C@@H]2c3cnn(-c4ccccc4)c3N(CC)C(=O)[C@H]2NC(=O)c2nccc(C(F)(F)F)n2)c1 (racemic) [Compound I-257]	1000 to 3000	1000 to 3000	
CCN1C(=O)[C@@H](NC(=O)c2nccc(C(F)(F)F)n2)[C@H](c2cccc(CN3CC=CS3(=O)=O)c2)c2cnn(-c3ccccc3)c21 [Compound I-263, N-((4R,5S)-4-(3-((1,1-dioxidoisothiazol-2 (3H)-yl)methyl)phenyl)-7-ethyl-6-oxo-1-phenyl-4,5,6,7-tetrahydro-1H-pyrazolo[3,4-b]pyridin-5-yl)-4-(trifluoromethyl)pyrimidine-2-carboxamide]	1000 to 3000	1000 to 3000	
C=C(CN1CCOCC1)C(=O)Nc1cccc([C@@H]2c3c(C)nn(-c4ccccc4)c3N(CCO)C(=O)[C@@H]2NC(=O)c2cccc(C(F)(F)F)c2)c1 (racemic) [Compound I-55, rac-N-((4R,5R)-7-(2-hydroxyethyl)-3-methyl-4-(3-(2-(morpholinomethyl)acrylamido)phenyl)-6-oxo-1-phenyl-4,5,6,7-tetrahydro-1H-pyrazolo[3,4-b]pyridin-5-yl)-3-(trifluoromethyl)benzamide]	1000 to 3000	1000 to 3000	
C=C(C(=O)NCc1cccc([C@@H]2c3cnn(-c4ccccc4)c3N(CC)C(=O)[C@@H]2NC(=O)c2nccc(C(F)(F)F)n2)c1)C(C)N1CC2(COC2)C1 (stereo partly drawn) [Compound I-377, N-((4R,5R)-7-ethyl-4-(3-((2-methylene-3-(2-oxa-6-azaspiro[3.3]heptan-6-yl)butanamido)methyl)phenyl)-6-oxo-1-phenyl-4,5,6,7-tetrahydro-1H-pyrazolo[3,4-b]pyridin-5-yl)-4-(trifluoromethyl)pyrimidine-2-carboxamide]	200 to 1000	1000 to 3000	
C/C=C(\CN1CCC1)C(=O)NCc1cccc([C@@H]2c3cnn(-c4ccccc4)c3N(CC)C(=O)[C@H]2NC(=O)c2cccc(C(F)(F)F)c2)c1 [Compound I-341]	≤ 200	200 to 1000	

Structure (SMILES)	IC50 [1] [nM]	IC50 [2] [nM]	IC50 [3] [nM]
CCN1C(=O)[C@@H](NC(=O)c2cccc(C(F)(F)F)c2)[C@H](c2cccc(CN(C)C/C=C/C(=O)N3CCCC3)c2)c2cnn(-c3ccccc3)c21 [Compound I-255]	1000 to 3000	1000 to 3000	
C=C(CN1CCOCC1)C(=O)NCc1cccc([C@H]2c3c(C)nn(-c4ccccc4)c3N(CC)C(=O)[C@@H]2NC(=O)c2cccc(C(F)(F)F)c2)c1 [Compound I-285]	≤ 200	1000 to 3000	
C=C(CN1CCN(C2COC2)CC1)C(=O)NCc1cccc([C@@H]2c3cnn(-c4ccccc4)c3N(CC)C(=O)[C@H]2NC(=O)c2ccn(C(F)(F)F)n2)c1 [Compound I-356]	≤ 200		≤ 200
CCN1C(=O)[C@@H](NC(=O)c2nccc(C(F)(F)F)n2)[C@H](c2cccc(NC(=O)C3=CCN(C)C3)n2)c2cnn(-c3ccccc3)c21 (racemic) [Compound I-376, rac-N-((4R,5S)-7-ethyl-4-(6-(1-methyl-2,5-dihydro-1H-pyrrole-3-carboxamido)pyridin-2-yl)-6-oxo-1-phenyl-4,5,6,7-tetrahydro-1H-pyrazolo[3,4-b]pyridin-5-yl)-4-(trifluoromethyl)pyrimidine-2-carboxamide]	≤ 200	200 to 1000	
C=C(CN1CCC(C)(O)C1)C(=O)NCc1cccc([C@@H]2c3cnn(-c4ccccc4)c3N(CC)C(=O)[C@H]2NC(=O)c2cccc(C(F)(F)F)c2)c1 (stereo partly drawn) [Compound I-10, N-((4R,5S)-7-ethyl-4-(3-((2-((3-hydroxy-3-methylpyrrolidin-1-yl)methyl)acrylamido)methyl)phenyl)-6-oxo-1-phenyl-4,5,6,7-tetrahydro-1H-pyrazolo[3,4-b]pyridin-5-yl)-3-(trifluoromethyl)benzamide]	≤ 200		≤ 200
CCN1C(=O)[C@@H](NC(=O)c2cccc(C(F)(F)F)c2)[C@H](c2cccc(CNC(=O)C3=CCN(C)C3)n2)c2cnn(-c3ccccc3)c21 [Compound I-348]	1000 to 3000	1000 to 3000	
CCN1C(=O)[C@@H](NC(=O)c2cccc(C(F)(F)F)c2)[C@H](c2ccccc2CNC#N)c2c(C)nn(-c3ccccc3)c21 (racemic) [Compound I-149]	200 to 1000	1000 to 3000	
C=C(C(=O)NCc1cccc([C@@H]2c3cnn(-c4ccccc4)c3N(CC)C(=O)[C@H]2NC(=O)c2cccc(C(F)(F)F)c2)c1)C(C)N1CCN(C2COC2)CC1 (stereo partly drawn) [Compound I-317]	≤ 200		≤ 200
CCN1C(=O)[C@H](NC(=O)c2cccc(C(F)(F)F)c2)[C@@H](c2cccc(NC(=O)C#CCN3CCOCC3)c2)c2c(C)nn(-c3ccccc3)c21 (racemic) [Compound I-139, rac-N-((4R,5S)-7-ethyl-3-methyl-4-(3-(4-morpholinobut-2-ynamido)phenyl)-6-oxo-1-phenyl-4,5,6,7-tetrahydro-1H-pyrazolo[3,4-b]pyridin-5-yl)-3-(trifluoromethyl)benzamide]	200 to 1000	1000 to 3000	
C=C(CN1CCC12COC2)C(=O)NCc1cccc([C@@H]2c3cnn(-c4ccccc4)c3N(CC)C(=O)[C@H]2NC(=O)c2nccc(C(F)(F)F)n2)c1 [Compound I-246]	≤ 200		≤ 200
CCN1C(=O)[C@H](NC(=O)c2cccc(C(F)(F)F)c2)[C@@H](c2ccccc2N2CC=CC2=O)c2cnn(-c3ccccc3)c21 (racemic) [Compound I-21]	> 3000	> 3000	
C=C(CN1CCN(C2COC2)CC1)C(=O)NCc1cccc([C@@H]2c3cnn(-c4ccccc4)c3N(CC)C(=O)[C@H]2NC(=O)c2nccc(C(F)(F)F)n2)c1 [Compound I-163]	≤ 200		≤ 200
CCN1C(=O)[C@@H](NC(=O)c2cccc(C(F)(F)F)c2)[C@H](c2cccc(CNC/C=C/C(=O)OC(C)(C)C)c2)c2cnn(-c3ccccc3)c21 [Compound I-306, tert-butyl (E)-4-((3-((4R,5S)-7-ethyl-6-oxo-1-phenyl-5-(3-(trifluoromethyl)benzamido)-4,5,6,7-tetrahydro-1H-pyrazolo[3,4-b]pyridin-4-yl)benzyl)amino)but-2-enoate]	200 to 1000	1000 to 3000	
CCN1C(=O)[C@H](NC(=O)c2cccc(C(F)(F)F)c2)[C@@H](c2cccc(CNC(=O)/C(C)=C/C(=O)OC)c2)c2cnn(-c3ccccc3)c21 [Compound I-125]	1000 to 3000	1000 to 3000	
CCN1C(=O)[C@@H](NC(=O)c2cccc(C(F)(F)F)c2)[C@H](c2cccc(NC(=O)C3=C(C(=O)OC)CCC3)c2)c2c(C)nn(-c3ccccc3)c21 (racemic) [Compound I-117]	1000 to 3000	1000 to 3000	
C=C(CO)C(=O)NCc1cccc([C@H]2c3cnn(-c4ccccc4)c3N(CC)C(=O)[C@@H]2NC(=O)c2cccc(C(F)(F)F)c2)c1 [Compound I-87]	1000 to 3000	1000 to 3000	
